Data: the kinase profiling compilation of Christmann-Franck et al. (2016)

Columns and labels:
Settings in all cases: compound 10.0 µM
HIPK2 (human) = HIPK2 (human) (UniProt Q9H2X6)
MAP3K8 (human) = MAP3K8 (human) (UniProt P41279)
LIMK1 (human) = LIMK1 (human) (UniProt P53667)
PRKACA (human) = PRKACA (human) (UniProt P17612)
EPHA2 (human) = EPHA2 (human) (UniProt P29317)
CLK4 (human) = CLK4 (human) (UniProt Q9HAZ1)
SYK (human) = SYK (human) (UniProt P43405)
CDC42BPA (human) = CDC42BPA (human) (UniProt Q5VT25)
MUSK (human) = MUSK (human) (UniProt O15146)
TBK1 (human) = TBK1 (human) (UniProt Q9UHD2)
IKBKE (human) = IKBKE (human) (UniProt Q14164)
ROCK1 (human) = ROCK1 (human) (UniProt Q13464)
SRPK3 (human) = SRPK3 (human) (UniProt Q9UPE1)
ERBB4 (human) = ERBB4 (human) (UniProt Q15303)
CDC42BPB (human) = CDC42BPB (human) (UniProt Q9Y5S2)
CAMK1D (human) = CAMK1D (human) (UniProt Q8IU85)
FGFR4 (human) = FGFR4 (human) (UniProt P22455)
SLK (human) = SLK (human) (UniProt Q9H2G2)
PLK1 (human) = PLK1 (human) (UniProt P53350)
SGK1 (human) = SGK1 (human) (UniProt O00141)
BMX (human) = BMX (human) (UniProt P51813)
DYRK2 (human) = DYRK2 (human) (UniProt Q92630)
PHKG2 (human) = PHKG2 (human) (UniProt P15735)
AURKB (human) = AURKB (human) (UniProt Q96GD4)
MAP3K11 (human) = MAP3K11 (human) (UniProt Q16584)
MARK1 (human) = MARK1 (human) (UniProt Q9P0L2)
DAPK2 (human) = DAPK2 (human) (UniProt Q9UIK4)
RIPK2 (human) = RIPK2 (human) (UniProt O43353)
PLK2 (human) = PLK2 (human) (UniProt Q9NYY3)
PRKCG (human) = PRKCG (human) (UniProt P05129)
CDK2 CCNA2 (human) = CDK2 CCNA2 (human) (UniProt P24941+P20248)
MAP2K2 (human) = MAP2K2 (human) (UniProt P36507)
STK16 (human) = STK16 (human) (UniProt O75716)
EPHA4 (human) = EPHA4 (human) (UniProt P54764)
PIM3 (human) = PIM3 (human) (UniProt Q86V86)
PRKCI (human) = PRKCI (human) (UniProt P41743)
CDK9 CCNK (human) = CDK9 CCNK (human) (UniProt P50750+O75909)
RPS6KA3 KD1 KD2 (human) = RPS6KA3 KD1 KD2 (human) (UniProt P51812)
PRKCB1 (human) = PRKCB1 (human) (UniProt P05771)
PRKD1 (human) = PRKD1 (human) (UniProt Q15139)
IRAK4 (human) = IRAK4 (human) (UniProt Q9NWZ3)
CDK2 CCNE1 (human) = CDK2 CCNE1 (human) (UniProt P24864+P24941)
BRSK1 (human) = BRSK1 (human) (UniProt Q8TDC3)
CDK6 CCND3 (human) = CDK6 CCND3 (human) (UniProt Q00534+P30281)

FGFR4 (human), sequence (P22455 whole entry, looked up): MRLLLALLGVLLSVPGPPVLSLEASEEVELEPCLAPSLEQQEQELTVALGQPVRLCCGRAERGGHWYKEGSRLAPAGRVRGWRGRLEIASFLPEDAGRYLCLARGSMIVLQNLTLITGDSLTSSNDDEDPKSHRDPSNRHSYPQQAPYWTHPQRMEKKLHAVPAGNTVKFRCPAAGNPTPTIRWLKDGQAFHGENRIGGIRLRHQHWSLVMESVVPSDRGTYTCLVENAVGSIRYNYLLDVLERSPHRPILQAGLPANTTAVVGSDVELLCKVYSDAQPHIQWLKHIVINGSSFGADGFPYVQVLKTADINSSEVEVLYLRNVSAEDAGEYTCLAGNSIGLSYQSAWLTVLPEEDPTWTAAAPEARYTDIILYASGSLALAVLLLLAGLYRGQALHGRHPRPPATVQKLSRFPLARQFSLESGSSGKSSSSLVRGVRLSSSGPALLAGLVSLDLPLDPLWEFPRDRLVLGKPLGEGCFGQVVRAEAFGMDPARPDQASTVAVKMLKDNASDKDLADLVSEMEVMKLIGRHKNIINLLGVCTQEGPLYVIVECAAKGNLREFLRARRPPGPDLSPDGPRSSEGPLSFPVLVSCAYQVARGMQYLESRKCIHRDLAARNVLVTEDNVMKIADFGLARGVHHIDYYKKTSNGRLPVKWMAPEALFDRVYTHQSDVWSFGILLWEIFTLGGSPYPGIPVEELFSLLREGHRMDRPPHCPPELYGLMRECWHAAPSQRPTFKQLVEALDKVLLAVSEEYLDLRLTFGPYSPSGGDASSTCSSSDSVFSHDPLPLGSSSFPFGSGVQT
ERBB4 (human), sequence (Q15303 whole entry, looked up): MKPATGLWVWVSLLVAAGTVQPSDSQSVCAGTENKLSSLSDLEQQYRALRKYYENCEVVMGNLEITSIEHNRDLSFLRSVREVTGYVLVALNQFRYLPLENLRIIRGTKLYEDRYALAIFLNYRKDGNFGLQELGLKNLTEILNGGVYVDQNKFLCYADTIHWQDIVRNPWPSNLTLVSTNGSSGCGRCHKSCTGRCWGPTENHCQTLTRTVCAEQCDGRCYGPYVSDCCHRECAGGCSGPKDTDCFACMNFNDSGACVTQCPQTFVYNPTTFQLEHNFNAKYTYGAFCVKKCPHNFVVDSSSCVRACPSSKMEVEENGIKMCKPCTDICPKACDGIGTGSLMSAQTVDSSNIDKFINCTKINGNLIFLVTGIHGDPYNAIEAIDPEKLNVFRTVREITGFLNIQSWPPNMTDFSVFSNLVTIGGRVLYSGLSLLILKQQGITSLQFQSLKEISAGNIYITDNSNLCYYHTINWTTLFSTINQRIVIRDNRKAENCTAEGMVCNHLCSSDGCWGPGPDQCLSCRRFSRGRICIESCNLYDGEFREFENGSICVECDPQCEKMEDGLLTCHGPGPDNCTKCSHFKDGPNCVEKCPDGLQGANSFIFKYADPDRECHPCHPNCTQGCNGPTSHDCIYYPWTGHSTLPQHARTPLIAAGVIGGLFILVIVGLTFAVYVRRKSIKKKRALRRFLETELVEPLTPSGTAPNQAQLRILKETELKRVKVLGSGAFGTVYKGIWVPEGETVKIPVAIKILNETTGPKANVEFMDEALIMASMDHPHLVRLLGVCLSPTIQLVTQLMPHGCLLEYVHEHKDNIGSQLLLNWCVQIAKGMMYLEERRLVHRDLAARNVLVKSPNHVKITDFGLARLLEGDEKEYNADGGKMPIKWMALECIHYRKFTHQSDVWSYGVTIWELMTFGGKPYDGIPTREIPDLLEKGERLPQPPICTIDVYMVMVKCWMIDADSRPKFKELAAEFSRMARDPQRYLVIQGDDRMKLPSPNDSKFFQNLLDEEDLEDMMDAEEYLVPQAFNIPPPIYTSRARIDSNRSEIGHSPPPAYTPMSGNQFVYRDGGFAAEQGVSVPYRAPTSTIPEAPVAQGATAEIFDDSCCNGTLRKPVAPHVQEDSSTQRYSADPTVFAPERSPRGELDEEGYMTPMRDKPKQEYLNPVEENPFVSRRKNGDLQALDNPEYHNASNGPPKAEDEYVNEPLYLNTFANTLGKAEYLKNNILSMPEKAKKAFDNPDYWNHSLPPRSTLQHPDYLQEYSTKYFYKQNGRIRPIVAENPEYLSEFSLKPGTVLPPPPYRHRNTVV
PRKCB1 (human), sequence (P05771 whole entry, looked up): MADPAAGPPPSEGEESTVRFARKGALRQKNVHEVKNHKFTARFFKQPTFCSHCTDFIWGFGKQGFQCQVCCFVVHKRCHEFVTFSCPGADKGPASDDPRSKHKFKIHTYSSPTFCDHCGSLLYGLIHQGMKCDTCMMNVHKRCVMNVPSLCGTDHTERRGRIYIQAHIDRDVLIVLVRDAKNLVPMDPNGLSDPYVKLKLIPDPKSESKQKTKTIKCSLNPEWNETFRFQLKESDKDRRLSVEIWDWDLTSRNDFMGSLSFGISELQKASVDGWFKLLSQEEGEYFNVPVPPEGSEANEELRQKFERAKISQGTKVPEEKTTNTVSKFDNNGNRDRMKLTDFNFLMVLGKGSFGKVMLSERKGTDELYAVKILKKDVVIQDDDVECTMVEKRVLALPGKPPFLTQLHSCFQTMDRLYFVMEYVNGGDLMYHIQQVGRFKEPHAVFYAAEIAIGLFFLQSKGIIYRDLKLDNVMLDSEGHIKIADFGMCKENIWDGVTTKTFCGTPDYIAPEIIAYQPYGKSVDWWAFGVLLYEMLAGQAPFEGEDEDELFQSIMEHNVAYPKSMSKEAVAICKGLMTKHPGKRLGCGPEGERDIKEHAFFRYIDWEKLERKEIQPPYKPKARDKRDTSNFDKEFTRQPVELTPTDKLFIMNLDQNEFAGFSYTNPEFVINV
PHKG2 (human), sequence (P15735 whole entry, looked up): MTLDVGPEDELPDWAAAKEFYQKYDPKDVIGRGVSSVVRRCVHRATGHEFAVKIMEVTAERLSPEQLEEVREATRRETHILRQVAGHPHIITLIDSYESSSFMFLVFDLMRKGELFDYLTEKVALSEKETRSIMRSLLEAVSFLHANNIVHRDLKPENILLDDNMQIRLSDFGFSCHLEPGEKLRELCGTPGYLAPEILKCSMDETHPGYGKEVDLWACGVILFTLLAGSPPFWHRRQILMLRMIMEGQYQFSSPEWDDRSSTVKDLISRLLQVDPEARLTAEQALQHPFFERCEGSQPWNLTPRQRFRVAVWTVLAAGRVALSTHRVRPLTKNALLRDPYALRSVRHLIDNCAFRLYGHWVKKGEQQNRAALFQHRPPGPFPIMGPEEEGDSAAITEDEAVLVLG
PLK2 (human), sequence (Q9NYY3 whole entry, looked up): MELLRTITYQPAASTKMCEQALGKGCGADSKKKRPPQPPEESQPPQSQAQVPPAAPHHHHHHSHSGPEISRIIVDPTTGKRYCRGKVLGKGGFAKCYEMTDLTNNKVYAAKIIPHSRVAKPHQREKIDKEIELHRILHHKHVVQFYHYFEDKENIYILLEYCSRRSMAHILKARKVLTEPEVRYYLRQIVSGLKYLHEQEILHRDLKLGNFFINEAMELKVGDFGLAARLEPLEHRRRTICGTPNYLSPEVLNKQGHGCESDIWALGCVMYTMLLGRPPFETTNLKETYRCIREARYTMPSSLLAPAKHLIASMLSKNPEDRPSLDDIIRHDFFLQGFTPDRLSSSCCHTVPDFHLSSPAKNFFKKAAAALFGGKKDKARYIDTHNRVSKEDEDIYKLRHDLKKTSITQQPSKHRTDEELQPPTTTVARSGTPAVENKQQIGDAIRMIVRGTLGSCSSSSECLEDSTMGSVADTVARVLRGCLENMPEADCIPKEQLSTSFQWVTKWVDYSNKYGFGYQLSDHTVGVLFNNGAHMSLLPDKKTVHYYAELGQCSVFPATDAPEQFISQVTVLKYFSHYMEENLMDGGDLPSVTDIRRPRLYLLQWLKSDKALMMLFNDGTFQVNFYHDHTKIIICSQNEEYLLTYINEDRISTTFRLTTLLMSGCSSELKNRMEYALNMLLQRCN
MAP2K2 (human), sequence (P36507 whole entry, looked up): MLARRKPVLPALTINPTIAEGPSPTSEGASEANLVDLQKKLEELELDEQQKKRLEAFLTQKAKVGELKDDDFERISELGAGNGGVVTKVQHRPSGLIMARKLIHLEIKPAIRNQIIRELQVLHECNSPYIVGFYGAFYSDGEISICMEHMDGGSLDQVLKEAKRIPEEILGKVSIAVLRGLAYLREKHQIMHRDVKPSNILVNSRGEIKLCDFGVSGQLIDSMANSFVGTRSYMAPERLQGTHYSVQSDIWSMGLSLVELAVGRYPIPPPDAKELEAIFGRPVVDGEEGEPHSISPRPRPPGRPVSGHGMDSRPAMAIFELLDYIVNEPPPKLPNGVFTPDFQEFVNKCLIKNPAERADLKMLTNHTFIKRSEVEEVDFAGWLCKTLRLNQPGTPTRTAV

Compound: CC[C@H](C)n1cc(C)c2c(C(=O)NCc3c(C)cc(C)[nH]c3=O)cc(-c3ccc(N4CCNCC4)nc3)cc21
- residual activity (HIPK2 (human)): 90%
- residual activity (MAP3K8 (human)): 95.5%
- residual activity (LIMK1 (human)): 99.5%
- residual activity (PRKACA (human)): 102%
- residual activity (EPHA2 (human)): 106%
- residual activity (CLK4 (human)): 95.5%
- residual activity (SYK (human)): 89%
- residual activity (CDC42BPA (human)): 100%
- residual activity (MUSK (human)): 104%
- residual activity (TBK1 (human)): 105%
- residual activity (IKBKE (human)): 94.5%
- residual activity (ROCK1 (human)): 96%
- residual activity (SRPK3 (human)): 98%
- residual activity (ERBB4 (human)): 93.5%
- residual activity (CDC42BPB (human)): 101%
- residual activity (CAMK1D (human)): 82%
- residual activity (FGFR4 (human)): 89%
- residual activity (SLK (human)): 108%
- residual activity (PLK1 (human)): 98.5%
- residual activity (SGK1 (human)): 99%
- residual activity (BMX (human)): 102%
- residual activity (DYRK2 (human)): 204%
- residual activity (PHKG2 (human)): 93.5%
- residual activity (AURKB (human)): 104%
- residual activity (MAP3K11 (human)): 95%
- residual activity (MARK1 (human)): 95.5%
- residual activity (DAPK2 (human)): 106%
- residual activity (RIPK2 (human)): 95.5%
- residual activity (PLK2 (human)): 93.5%
- residual activity (PRKCG (human)): 91.5%
- residual activity (CDK2 CCNA2 (human)): 97%
- residual activity (MAP2K2 (human)): 102%
- residual activity (STK16 (human)): 102%
- residual activity (EPHA4 (human)): 92%
- residual activity (PIM3 (human)): 93.5%
- residual activity (PRKCI (human)): 99.5%
- residual activity (CDK9 CCNK (human)): 96.5%
- residual activity (RPS6KA3 KD1 KD2 (human)): 90.5%
- residual activity (PRKCB1 (human)): 102%
- residual activity (PRKD1 (human)): 100%
- residual activity (IRAK4 (human)): 107%
- residual activity (CDK2 CCNE1 (human)): 96%
- residual activity (BRSK1 (human)): 99.5%
- residual activity (CDK6 CCND3 (human)): 102%
